A word on the IC50: it is the concentration that inhibits the measured activity by half.

This assay concerns the target T1, Recombinant human BRD4 containing dual bromodomains (BRD4-BD12 (1-477)) (Homo sapiens, UniProt O60885).
T1 construct: Recombinant human BRD4 containing dual bromodomains (BRD4-BD12 (1-477)); made in house; host or cells: E. coli BL21-CodonPlus (DE3), modified pET vector
The assay can be described thus: BRD4 Alphascreen binding assay. The procedure, abridged: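 AlphaScreen proximity between Ni-chelate-bound BRD4-BD12 (1-477) and streptavidin-captured H4 K5/K8/K12/K16-acetyl peptide measured after 1 h room-temperature compound incubation and 30 min with 7.5 μg/ml beads. Buffer: 50 mM HEPES pH 7.5, 50 mM NaCl, 0.01% BSA, 0.01% Triton X-100; data plate-normalized and four-parameter fit for IC50.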
Background: In Alpha technology, singlet oxygen from a donor bead excites a nearby acceptor bead.

On to `CCOc1cc(C(=O)O)cc(F)c1-n1cc(-c2ccccc2)c2ncc(-c3c(C)noc3C)cc21` [P-0205, 4-(6-(3,5-dimethylisoxazol-4-yl)-3-phenyl-1H-pyrrolo[3,2-b]pyridin-1-yl)-3-ethoxy-5-fluorobenzoic acid], for which the IC50 is 1 to 8 µM. With `CCOc1cccc(C#N)c1-n1cc(-c2ccccc2)c2ncc(-c3c(C)noc3C)cc21` [P-0206, 2-(6-(3,5-dimethylisoxazol-4-yl)-3-phenyl-1H-pyrrolo[3,2-b]pyridin-1-yl)-3-ethoxybenzonitrile] the figure was 8 to 1000 µM. With `Cc1noc(C)c1-c1cnc2c(-c3ccccc3)cn(-c3c(Cl)cccc3C#N)c2c1` [P-0207, 3-chloro-2-(6-(3,5-dimethylisoxazol-4-yl)-3-phenyl-1H-pyrrolo[3,2-b]pyridin-1-yl)benzonitrile] the figure was 1 to 8 µM; with `CCOc1cc(C(=O)O)cc(OCC)c1-n1cc(C2=CCC(F)(F)CC2)c2ncc(-c3c(C)noc3C)cc21` [P-0208, 4-(3-(4,4-difluorocyclohex-1-en-1-yl)-6-(3,5-dimethylisoxazol-4-yl)-1H-pyrrolo[3,2-b]pyridin-1-yl)-3,5-diethoxybenzoic acid], 1 to 8 µM; with `CCOc1cc(C(=O)O)cc(OCC)c1-n1cc(-c2ccc(F)c(Cl)c2)c2ncc(-c3c(C)noc3C)cc21` [P-0209, 4-(3-(3-chloro-4-fluorophenyl)-6-(3,5-dimethylisoxazol-4-yl)-1H-pyrrolo[3,2-b]pyridin-1-yl)-3,5-diethoxybenzoic acid], 1 to 8 µM.

`CCOc1cc(C(=O)O)cc(OCC)c1-n1cc(CC2CCC2)c2ncc(-c3c(COC)noc3C)cc21` [P-0210, 4-(3-(cyclobutylmethyl)-6-(3-(methoxymethyl)-5-methylisoxazol-4-yl)-1H-pyrrolo[3,2-b]pyridin-1-yl)-3,5-diethoxybenzoic acid]: the IC50 was 8 to 1000 µM. Consider `Cc1cnccc1-n1cc(-c2ccc(C(=O)O)cc2OC(F)(F)F)c2cc(-c3c(C)noc3C)cnc21` [P-0211, 4-(5-(3,5-dimethylisoxazol-4-yl)-1-(3-methylpyridin-4-yl)-1H-pyrrolo[2,3-b]pyridin-3-yl)-3-(trifluoromethoxy)benzoic acid], for which the IC50 was 1 to 8 µM. `Cc1noc(C)c1-c1cnc2c(c1)c(-c1ccc(C(=O)O)cc1OC(F)(F)F)cn2C1CCS(=O)(=O)CC1` [P-0212, 4-(5-(3,5-dimethylisoxazol-4-yl)-1-(1,1-dioxidotetrahydro-2H-thiopyran-4-yl)-1H-pyrrolo[2,3-b]pyridin-3-yl)-3-(trifluoromethoxy)benzoic acid]: the IC50 is 8 to 1000 µM. For `Cc1noc(C)c1-c1cnc2c(c1)c(-c1ccc(C(=O)O)cc1OC(C)C)cn2C(C1CC1)C1CC1` [P-0213, 4-(1-(dicyclopropylmethyl)-5-(3,5-dimethylisoxazol-4-yl)-1H-pyrrolo[2,3-b]pyridin-3-yl)-3-isopropoxybenzoic acid], the IC50 fell in the range of 8 to 1000 µM. The value for `Cc1noc(C)c1-c1cnc2c(c1)c(-c1ccc(C(=O)O)cc1OCC(F)(F)F)cn2C(C1CC1)C1CC1` [P-0214, 4-(1-(dicyclopropylmethyl)-5-(3,5-dimethylisoxazol-4-yl)-1H-pyrrolo[2,3-b]pyridin-3-yl)-3-(2,2,2-trifluoroethoxy)benzoic acid] was 8 to 1000 µM; that for `Cc1noc(C)c1-c1cnc2c(c1)c(-c1ccc(C(=O)O)cc1OC(F)(F)F)cn2-c1ncccc1C#N` [P-0215, 4-(1-(3-cyanopyridin-2-yl)-5-(3,5-dimethylisoxazol-4-yl)-1H-pyrrolo[2,3-b]pyridin-3-yl)-3-(trifluoromethoxy)benzoic acid] was 1 to 8 µM. With `Cc1noc(C)c1-c1cnc2c(c1)c(-c1ccc(C(=O)O)cc1OC(F)(F)F)cn2-c1ncccc1C#CC1CC1` [P-0216, 4-(1-(3-(cyclopropylethynyl)pyridin-2-yl)-5-(3,5-dimethylisoxazol-4-yl)-1H-pyrrolo[2,3-b]pyridin-3-yl)-3-(trifluoromethoxy)benzoic acid], the IC50 is 8 to 1000 µM. On to `CCOc1cc(C(=O)O)cc(OCC)c1-n1cc(-c2ccc(C#N)cc2F)c2ncc(-c3c(C)noc3C)cc21` [P-0217, 4-(3-(4-cyano-2-fluorophenyl)-6-(3,5-dimethylisoxazol-4-yl)-1H-pyrrolo[3,2-b]pyridin-1-yl)-3,5-diethoxybenzoic acid], for which the IC50 lay within 1 to 8 µM. On to `CCOc1cc(C(=O)O)cc(OCC)c1-n1cc(-c2ccc(C(=O)NC3CC3)cc2)c2ncc(-c3c(C)noc3C)cc21` [P-0218, 4-(3-(4-(cyclopropylcarbamoyl)phenyl)-6-(3,5-dimethylisoxazol-4-yl)-1H-pyrrolo[3,2-b]pyridin-1-yl)-3,5-diethoxybenzoic acid], for which the IC50 was 1 to 8 µM. The value for `COC(=O)c1cc(OC)c(-n2cc(-c3ccccc3)c3ncc(-c4c(C)noc4C)cc32)c(OC)c1` [P-0219, methyl 4-(6-(3,5-dimethylisoxazol-4-yl)-3-phenyl-1H-pyrrolo[3,2-b]pyridin-1-yl)-3,5-dimethoxybenzoate] was 1 to 8 µM.

Take `COc1cc(C(=O)O)cc(OC)c1-n1cc(-c2ccccc2)c2ncc(-c3c(C)noc3C)cc21` [P-0220, 4-(6-(3,5-dimethylisoxazol-4-yl)-3-phenyl-1H-pyrrolo[3,2-b]pyridin-1-yl)-3,5-dimethoxybenzoic acid]: the IC50 fell in the range of 0.0001 to 1 µM. As for `COc1cccc(OC)c1-n1cc(-c2ccccc2)c2ncc(-c3c(C)noc3C)cc21` [P-0221, 4-(1-(2,6-dimethoxyphenyl)-3-phenyl-1H-pyrrolo[3,2-b]pyridin-6-yl)-3,5-dimethylisoxazole], the IC50 lay in the range of 8 to 1000 µM. With `CCOc1cc(C(=O)O)cc(OCC)c1-n1cc(-c2ccnc(F)c2)c2ncc(-c3c(C)noc3C)cc21` [P-0222, 4-(6-(3,5-dimethylisoxazol-4-yl)-3-(2-fluoropyridin-4-yl)-1H-pyrrolo[3,2-b]pyridin-1-yl)-3,5-diethoxybenzoic acid], the IC50 lay in the range of 1 to 8 µM. For the molecule `Cc1noc(C)c1-c1cnc2c(c1)c(-c1ccc(C(=O)O)cc1OC(F)(F)F)cn2-c1ccccc1F` [P-0223, 4-(5-(3,5-dimethylisoxazol-4-yl)-1-(2-fluorophenyl)-1H-pyrrolo[2,3-b]pyridin-3-yl)-3-(trifluoromethoxy)benzoic acid], the IC50 lay within 1 to 8 µM. As for `CCOc1cccc(Cl)c1-n1cc(-c2ccccc2)c2ncc(-c3c(C)noc3C)cc21` [P-0224, 4-(1-(2-chloro-6-ethoxyphenyl)-3-phenyl-1H-pyrrolo[3,2-b]pyridin-6-yl)-3,5-dimethylisoxazole], the IC50 lay in the range of 1 to 8 µM. Turning to `CCOc1ccc(C(=O)O)cc1-n1cc(-c2ccccc2)c2ncc(-c3c(C)noc3C)cc21` [P-0225, 3-(6-(3,5-dimethylisoxazol-4-yl)-3-phenyl-1H-pyrrolo[3,2-b]pyridin-1-yl)-4-ethoxybenzoic acid], the IC50 lay within 1 to 8 µM.

For `Cc1noc(C)c1-c1cnc2c(c1)c(-c1ccc(C(=O)O)cc1OC(F)(F)F)cn2C1CCOCC1` [P-0226, 4-(5-(3,5-dimethylisoxazol-4-yl)-1-(tetrahydro-2H-pyran-4-yl)-1H-pyrrolo[2,3-b]pyridin-3-yl)-3-(trifluoromethoxy)benzoic acid], the IC50 was 1 to 8 µM.

Regarding `Cc1noc(C)c1-c1cnc2c(c1)c(-c1ccc(C(=O)O)cc1OC(F)(F)F)cn2C1CCC(F)(F)CC1` [P-0227, 4-(1-(4,4-difluorocyclohexyl)-5-(3,5-dimethylisoxazol-4-yl)-1H-pyrrolo[2,3-b]pyridin-3-yl)-3-(trifluoromethoxy)benzoic acid], the IC50 lay within 1 to 8 µM.

In the case of `Cc1noc(C)c1-c1cnc2c(c1)c(-c1ccc(C(=O)O)cc1OC(F)(F)F)c(C)n2-c1ccccn1` [P-0228, 4-(5-(3,5-dimethylisoxazol-4-yl)-2-methyl-1-(pyridin-2-yl)-1H-pyrrolo[2,3-b]pyridin-3-yl)-3-(trifluoromethoxy)benzoic acid], the IC50 lay in the range of 1 to 8 µM. With `Cc1noc(C)c1-c1cnc2c(-c3ccc(F)cc3F)cn(-c3ccc(C(=O)O)cc3OC(F)(F)F)c2c1` [P-0229, 4-(3-(2,4-difluorophenyl)-6-(3,5-dimethylisoxazol-4-yl)-1H-pyrrolo[3,2-b]pyridin-1-yl)-3-(trifluoromethoxy)benzoic acid] the figure was 1 to 8 µM; with `Cc1noc(C)c1-c1cnc2c(c1)c(-c1c(F)cc(C(=O)O)cc1OC(F)(F)F)cn2C(C1CC1)C1CC1` [P-0230, 4-(1-(dicyclopropylmethyl)-5-(3,5-dimethylisoxazol-4-yl)-1H-pyrrolo[2,3-b]pyridin-3-yl)-3-fluoro-5-(trifluoromethoxy)benzoic acid], 1 to 8 µM. With `Cc1ccccc1-n1cc(-c2ccc(C(=O)O)cc2OC(F)(F)F)c2cc(-c3c(C)noc3C)cnc21` [P-0231, 4-(5-(3,5-dimethylisoxazol-4-yl)-1-(o-tolyl)-1H-pyrrolo[2,3-b]pyridin-3-yl)-3-(trifluoromethoxy)benzoic acid], the IC50 lay in the range of 8 to 1000 µM. For the molecule `Cc1noc(C)c1-c1cnc2c(c1)c(-c1ccc(C(=O)O)cc1OC(F)(F)F)cn2-c1ccc(F)cc1F` [P-0232, 4-(1-(2,4-difluorophenyl)-5-(3,5-dimethylisoxazol-4-yl)-1H-pyrrolo[2,3-b]pyridin-3-yl)-3-(trifluoromethoxy)benzoic acid], the IC50 fell in the range of 1 to 8 µM. In the case of `Cc1noc(C)c1-c1cnc2c(c1)c(-c1ccc(C(=O)O)cc1OC(F)(F)F)cn2-c1cc(F)ccc1F` [P-0233, 4-(1-(2,5-difluorophenyl)-5-(3,5-dimethylisoxazol-4-yl)-1H-pyrrolo[2,3-b]pyridin-3-yl)-3-(trifluoromethoxy)benzoic acid], the IC50 fell in the range of 1 to 8 µM.

For the molecule `Cc1noc(C)c1-c1cnc2c(-c3ccc(C(=O)O)cc3F)c(C(F)(F)F)n([C@@H](C)c3ccccn3)c2c1` [P-0234, (S)-4-(6-(3,5-dimethylisoxazol-4-yl)-1-(1-(pyridin-2-yl)ethyl)-2-(trifluoromethyl)-1H-pyrrolo[3,2-b]pyridin-3-yl)-3-fluorobenzoic acid], the concentration for half-maximal inhibition (IC50) fell in the range of 1 to 8 µM.

The values are drawn from patent US11446287B2, “Compounds and methods for EP300 or CBP modulation and indications therefor” (Opna Immuno-Oncology SA, priority 2019, dated 2022).
